Results taken from US8987256B2, “Oxo-heterocyclic substituted carboxylic acid derivatives and the use thereof” (Bayer Intellectual Property GmbH, priority 2008, dated 2015).

Tests used:
[1] = molecular target: T1, Heme-containing sGC (recombinant soluble guanylate cyclase) (Rattus norvegicus, UniProt P20595); experiment: Stimulation of recombinant soluble guanylate cyclase (sGC) in vitro, heme-containing enzyme; type: biochemical
T1 construct: made in house; host or cells: baculovirus/Sf9 insect cells
T1 sequence (P20595 1-619): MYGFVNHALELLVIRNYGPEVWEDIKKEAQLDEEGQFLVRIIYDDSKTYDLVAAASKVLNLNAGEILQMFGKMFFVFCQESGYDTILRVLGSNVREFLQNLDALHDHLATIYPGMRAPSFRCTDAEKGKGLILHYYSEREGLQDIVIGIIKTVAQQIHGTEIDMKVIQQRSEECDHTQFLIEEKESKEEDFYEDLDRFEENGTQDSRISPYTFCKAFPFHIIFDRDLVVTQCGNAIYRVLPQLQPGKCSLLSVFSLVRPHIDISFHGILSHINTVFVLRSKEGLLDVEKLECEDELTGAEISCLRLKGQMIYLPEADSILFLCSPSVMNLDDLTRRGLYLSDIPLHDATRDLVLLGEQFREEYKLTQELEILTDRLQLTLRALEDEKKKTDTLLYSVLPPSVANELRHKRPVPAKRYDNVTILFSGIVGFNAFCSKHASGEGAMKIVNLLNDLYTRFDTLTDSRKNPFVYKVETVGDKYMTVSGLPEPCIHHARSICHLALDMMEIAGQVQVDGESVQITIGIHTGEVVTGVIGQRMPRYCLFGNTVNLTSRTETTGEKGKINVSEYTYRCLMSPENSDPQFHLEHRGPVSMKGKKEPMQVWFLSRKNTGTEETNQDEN
T1 sequence (P19686 1-690 partner): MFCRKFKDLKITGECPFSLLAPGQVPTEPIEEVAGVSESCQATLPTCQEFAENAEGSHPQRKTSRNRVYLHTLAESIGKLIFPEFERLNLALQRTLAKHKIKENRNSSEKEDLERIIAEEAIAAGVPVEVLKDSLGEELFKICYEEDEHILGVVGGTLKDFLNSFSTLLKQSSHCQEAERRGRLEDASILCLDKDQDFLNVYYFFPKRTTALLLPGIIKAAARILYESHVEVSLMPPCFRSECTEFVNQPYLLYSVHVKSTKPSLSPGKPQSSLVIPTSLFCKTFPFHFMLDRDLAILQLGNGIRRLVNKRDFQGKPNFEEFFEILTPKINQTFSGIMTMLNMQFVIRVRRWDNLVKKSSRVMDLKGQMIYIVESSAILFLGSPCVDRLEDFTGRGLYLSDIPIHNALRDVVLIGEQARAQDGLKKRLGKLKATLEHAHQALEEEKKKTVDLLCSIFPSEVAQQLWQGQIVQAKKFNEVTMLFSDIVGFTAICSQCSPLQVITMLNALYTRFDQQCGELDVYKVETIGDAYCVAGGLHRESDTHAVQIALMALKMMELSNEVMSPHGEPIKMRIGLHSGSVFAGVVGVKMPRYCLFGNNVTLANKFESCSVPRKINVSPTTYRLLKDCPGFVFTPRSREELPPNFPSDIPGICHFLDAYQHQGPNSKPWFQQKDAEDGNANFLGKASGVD
Description: Hoenicka, E. M. Becker, H. Apeler, T. Sirichoke, H. Schroeder, R. Gerzer and J.-P. Stasch, “Purified soluble guanylyl cyclase expressed in a baculovirus/Sf9 system: Stimulation by YC-1, nitric oxide, and carbon oxide”, J. Mol. Med. 77 (1999), 14-23. The heme-free guanylate cyclase is obtained by adding Tween 20 to the sample buffer (0.5% in the final concentration).
The activation of sGC by a test substance is reported as n-fold stimulation of the basal activity.

saphenous artery rings = experiment: Vasorelaxant effect in vitro (phenylephrine-contracted artery rings); set-up: species or system Rabbits; details: Oryctolagus cuniculus, concentration reducing phenylephrine-induced contraction by 50%
Experimental: Rabbits are anesthetized and sacrificed by intravenous injection of thiopental sodium (about 50 mg/kg) and exsanguinated. The saphenous artery is removed and divided into rings 3 mm wide. The rings are mounted singly on in each case a pair of triangular hooks open at the end and made of 0.3 mm-thick special wire (Remanium®). Each ring is placed under an initial tension in 5 ml organ baths with Krebs-Henseleit solution which is at 37° C., is gassed with carbogen and has the following composition: NaCl 119 mM; KCl 4.8 mM; CaCl2×2H2O 1 mM; MgSO4×7H2O 1.4 mM; KH2PO4 1.2 mM; NaHCO3 25 mM; glucose 10 mM; bovine serum albumin 0.001%. The force of contraction is detected with Statham UC2 cells, amplified and digitized via A/D converters (DAS-1802 HC, Keithley Instruments, Munich) and recorded in parallel on chart recorders. Contractions are induced by addition of phenylephrine.
After several (generally 4) control cycles, the substance to be investigated is added in each further run in increasing dosage, and the level of the contraction achieved under the influence of the test substance is compared with the level of the contraction reached in the last preceding run. The concentration necessary to reduce the contraction reached in the preceding control by 50% is calculated from this (IC50). The standard application volume is 5 μl. The proportion of DMSO in the bath solution corresponds to 0.1%.

Structure (SMILES): O=C(O)CCc1cccc(NC(=O)C(c2ccc(CN3N=C(c4ccccc4)OCC3=O)cc2)C2CCCC2)c1 (single isomer, unassigned) [Example 103, 3-{3-[(Cyclopentyl{4-[(5-oxo-2-phenyl-5,6-dihydro-4H-1,3,4-oxadiazin-4-yl)methyl]phenyl}acetyl)amino]phenyl}propanoic acid]
- Stimulation (n-fold) of heme-containing sGC, basal ([1]; 0.1 μM Example 103): 1.2 n-fold
- Stimulation (n-fold) of heme-containing sGC, +0.1 μM DEA/NO ([1]; 0.1 μM Example 103): 6.9 n-fold
- Stimulation (n-fold) of heme-containing sGC, +10 μM ODQ ([1]; 0.1 μM Example 103): 5.8 n-fold
- Stimulation (n-fold) of heme-containing sGC, basal ([1]; 1 μM Example 103): 1.4 n-fold
- Stimulation (n-fold) of heme-containing sGC, +0.1 μM DEA/NO ([1]; 1 μM Example 103): 7.8 n-fold
- Stimulation (n-fold) of heme-containing sGC, +10 μM ODQ ([1]; 1 μM Example 103): 8.5 n-fold
- Stimulation (n-fold) of heme-containing sGC, basal ([1]; 10 μM Example 103): 6.2 n-fold
- Stimulation (n-fold) of heme-containing sGC, +0.1 μM DEA/NO ([1]; 10 μM Example 103): 13.5 n-fold
- Stimulation (n-fold) of heme-containing sGC, +10 μM ODQ ([1]; 10 μM Example 103): 36.8 n-fold
- Stimulation (n-fold) of heme-containing sGC, basal ([1]; 100 μM Example 103): 22.3 n-fold
- Stimulation (n-fold) of heme-containing sGC, +0.1 μM DEA/NO ([1]; 100 μM Example 103): 35.6 n-fold
- Stimulation (n-fold) of heme-containing sGC, +10 μM ODQ ([1]; 100 μM Example 103): 91.8 n-fold
- Effect of combination with the NO donor DEA/NO on sGC stimulation ([1]; combination with DEA/NO): no synergistic effect
- IC50 (saphenous artery rings): 120 nM
